Target: T1, human HSL (Homo sapiens, UniProt Q05469)
T1 construct: generate a full length human HSL ORF with a 3′-His6 tag; made in house; host or cells: High 5 insect cells (baculovirus, pFast-BAC)
T1 sequence (Q05469 1-1076): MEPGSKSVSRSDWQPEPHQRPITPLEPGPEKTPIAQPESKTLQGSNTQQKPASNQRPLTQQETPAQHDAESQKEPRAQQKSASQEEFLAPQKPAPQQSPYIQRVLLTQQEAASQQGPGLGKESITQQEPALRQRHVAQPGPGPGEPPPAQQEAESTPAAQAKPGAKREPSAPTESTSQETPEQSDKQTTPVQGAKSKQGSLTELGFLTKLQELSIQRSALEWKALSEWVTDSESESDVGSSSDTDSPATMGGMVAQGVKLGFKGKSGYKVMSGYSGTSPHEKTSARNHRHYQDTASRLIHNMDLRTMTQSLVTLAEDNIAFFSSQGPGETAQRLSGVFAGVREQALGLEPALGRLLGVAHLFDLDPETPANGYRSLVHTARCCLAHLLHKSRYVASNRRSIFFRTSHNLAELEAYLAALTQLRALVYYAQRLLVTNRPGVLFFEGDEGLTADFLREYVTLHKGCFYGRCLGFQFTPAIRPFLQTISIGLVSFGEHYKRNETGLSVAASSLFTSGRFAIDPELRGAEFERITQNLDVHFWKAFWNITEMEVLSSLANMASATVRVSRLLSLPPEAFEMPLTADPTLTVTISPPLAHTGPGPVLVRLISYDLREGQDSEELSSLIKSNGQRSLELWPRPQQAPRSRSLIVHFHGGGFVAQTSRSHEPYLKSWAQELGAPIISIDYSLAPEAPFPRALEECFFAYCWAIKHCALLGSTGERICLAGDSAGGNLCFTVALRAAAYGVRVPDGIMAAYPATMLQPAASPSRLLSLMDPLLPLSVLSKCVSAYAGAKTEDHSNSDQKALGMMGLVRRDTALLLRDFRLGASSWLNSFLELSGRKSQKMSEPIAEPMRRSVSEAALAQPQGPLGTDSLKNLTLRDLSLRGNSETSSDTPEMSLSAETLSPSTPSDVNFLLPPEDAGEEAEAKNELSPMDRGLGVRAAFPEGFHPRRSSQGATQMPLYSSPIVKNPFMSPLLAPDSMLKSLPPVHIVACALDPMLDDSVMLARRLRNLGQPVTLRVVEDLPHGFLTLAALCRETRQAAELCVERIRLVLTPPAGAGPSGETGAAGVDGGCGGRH
Assay: Human Hormone-Sensitive Lipase (HSL) enzyme inhibition assay (colorimetric, DMPT substrate)
Assay type: biochemical
Details: human full length HSL-His6, 2,3-dimercapto-1-propanol tributyrate substrate, 37° C. 20 minutes, absorbance at 405 nm; read-out: HSL hum IC50
Summary of the method: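 Full-length human HSL with C-terminal His6, expressed in baculovirus-infected High 5 cells and Ni-NTA purified, was added (15 ug/ml stock) to 1.5 mM DMPT in 100 mM MOPS pH 7.2, 0.2 mg/ml fatty acid-free BSA containing compound. After 20 min at 37 °C, DTNB with SDS/Triton X-100 was added; A405 read after 15 min at RT.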

## CC(C)[C@]1(O)CC[C@@]2(CCN(c3ccc(O[C@@H](C)C(F)(F)F)nc3)C2=O)CC1 [Example 149, (5α,8β)-8-Hydroxy-8-isopropyl-2-[6-((S)-2,2,2-trifluoro-1-methyl-ethoxy)pyridin-3-yl]-2-aza-spiro[4.5]decan-1-one]
  IC50: 1650 nM

## CC(C)[C@]1(O)CC[C@]2(CCN(c3ccc(O[C@H](C)C(F)(F)F)nc3)C2=O)CC1 [Example 150, (5α,8α)-8-Hydroxy-8-isopropyl-2-[6-((R)-2,2,2-trifluoro-1-methyl-ethoxy)-pyridin-3-yl]-2-aza-spiro[4.5]decan-1-one]
  IC50: 20 nM

## CC(C)[C@]1(O)CC[C@@]2(CCN(c3ccc(O[C@H](C)C(F)(F)F)nc3)C2=O)CC1 [Example 151, (5α,8β)-8-Hydroxy-8-isopropyl-2-[6-((R)-2,2,2-trifluoro-1-methyl-ethoxy)pyridin-3-yl]-2-aza-spiro[4.5]decan-1-one]
  IC50: 1850 nM

## COC[C@]1(O)CC[C@]2(CCN(c3ccc(O[C@H](C)C(F)(F)F)nc3)C2=O)CC1 [Example 152, (5α,8α)-8-Hydroxy-8-methoxymethyl-2-[6-((R)-2,2,2-trifluoro-1-methyl-ethoxy)-pyridin-3-yl]-2-aza-spiro[4.5]decan-1-one]
  IC50: 50 nM

## COC[C@]1(O)CC[C@]2(CCN(c3ccc(O[C@@H](C)C(F)(F)F)nc3)C2=O)CC1 [Example 153, (5α,8α)-8-Hydroxy-8-methoxymethyl-2-[6-((S)-2,2,2-trifluoro-1-methyl-ethoxy)-pyridin-3-yl]-2-aza-spiro[4.5]decan-1-one]
  IC50: 50 nM

## COC[C@]1(O)CC[C@]2(CCN(c3ccc(CC(F)(F)F)cc3)C2=O)CC1 [Example 154, (5α,8α)-8-Hydroxy-8-methoxymethyl-2-[4-(2,2,2-trifluoro-ethyl)-phenyl]-2-aza-spiro[4.5]decan-1-one]
  IC50: 30 nM

## O=C1N(c2ccc([C@@H](O)C(F)(F)F)cc2)CC[C@]12CC[C@@](O)(COCC(F)(F)F)CC2 [Example 155, (5α,8α)-8-Hydroxy-8-(2,2,2-trifluoro-ethoxymethyl)-2-[4-((R)-2,2,2-trifluoro-1-hydroxy-ethyl)-phenyl]-2-aza-spiro[4.5]decan-1-one]
  IC50: 9 nM

## CN(C)C(=O)C[C@]1(O)CC[C@]2(CCN(c3ccc(OC(F)(F)F)cc3)C2=O)CC1 [Example 156, 2-[(5α,8α)-8-Hydroxy-1-oxo-2-(4-trifluoromethoxy-phenyl)-2-aza-spiro[4.5]dec-8-yl]-N,N-dimethyl-acetamide]
  IC50: 60 nM

## CN(C)C(=O)C[C@]1(O)CC[C@]2(CCN(c3ccc(OCC(F)(F)F)cc3)C2=O)CC1 [Example 157, 2-((5α,8α)-8-Hydroxy-1-oxo-2-(4-(2,2,2-trifluoroethoxy)phenyl)-2-aza-spiro[4.5]decan-8-yl)-N,N-dimethylacetamide]
  IC50: 250 nM

## CNC(=O)C[C@]1(O)CC[C@]2(CCN(c3ccc(OCC(F)(F)F)cc3)C2=O)CC1 [Example 158, 2-((5α,8α)-8-Hydroxy-1-oxo-2-(4-(2,2,2-trifluoroethoxy)phenyl)-2-aza-spiro[4.5]decan-8-yl)-N-methylacetamide]
  IC50: 340 nM

## CC(C)OC[C@]1(O)CC[C@]2(CCN(c3ccc([C@@H](O)C(F)(F)F)cc3)C2=O)CC1 [Example 159, (5α,8α)-8-Hydroxy-8-isopropoxymethyl-2-[4-((R)-2,2,2-trifluoro-1-hydroxy-ethyl)-phenyl]-2-aza-spiro[4.5]decan-1-one]
  IC50: 20 nM

## O=C1N(c2ccc([C@@H](O)C(F)(F)F)cc2)CC[C@]12CC[C@@](O)(COCC(F)F)CC2 [Example 160, (5α,8α)-8-(2,2-Difluoro-ethoxymethyl)-8-hydroxy-2-[4-((R)-2,2,2-trifluoro-1-hydroxy-ethyl)-phenyl]-2-aza-spiro[4.5]decan-1-one]
  IC50: 300 nM

## CCc1ccc(CCN2CC[C@]3(CC[C@@](O)(C(C)C)CC3)C2=O)cc1 [Example 161, (5α,8α)-2-(4-Ethylphenethyl)-8-hydroxy-8-isopropyl-2-aza-spiro[4.5]decan-1-one]
  IC50: 10 nM

## CCC[C@]1(O)CC[C@@]2(CCN(c3ccc(OC(C)C(F)(F)F)cc3)C2=O)CC1 (stereo partly drawn) [Example 163, (5α,8β)-8-Hydroxy-8-propyl-2-[4-(2,2,2-trifluoro-1-methyl-ethoxy)-phenyl]-2-aza-spiro[4.5]decan-1-one]
  IC50: 790 nM

## CCC[C@]1(O)CC[C@]2(CCN(c3ccc(OC(C)C(F)(F)F)cc3)C2=O)CC1 (stereo partly drawn) [Example 164, (5α,8α)-8-Hydroxy-8-propyl-2-[4-(2,2,2-trifluoro-1-methyl-ethoxy)-phenyl]-2-aza-spiro[4.5]decan-1-one]
  IC50: 20 nM

## CCC[C@]1(O)CC[C@]2(CCN(c3ccc(O[C@@H](C)C(F)(F)F)cc3)C2=O)CC1 [Example 164a, (5α,8α)-8-Hydroxy-8-propyl-2-[4-((S)-2,2,2-trifluoro-1-methyl-ethoxy)-phenyl]-2-aza-spiro[4.5]decan-1-one]
  IC50: 20 nM

## CCC[C@]1(O)CC[C@]2(CCN(c3ccc(O[C@H](C)C(F)(F)F)cc3)C2=O)CC1 [Example 164b, (5α,8α)-8-Hydroxy-8-propyl-2-[4-((R)-2,2,2-trifluoro-1-methyl-ethoxy)-phenyl]-2-aza-spiro[4.5]decan-1-one]
  IC50: 20 nM

## CC[C@]1(O)CC[C@]2(CCN(c3ccc(OC(C)C(F)(F)F)cc3)C2=O)CC1 (stereo partly drawn) [Example 165, (5α,8α)-8-Ethyl-8-hydroxy-2-[4-(2,2,2-trifluoro-1-methyl-ethoxy)-phenyl]-2-aza-spiro[4.5]decan-1-one]
  IC50: 20 nM

## CC[C@]1(O)CC[C@]2(CCN(c3ccc(O[C@@H](C)C(F)(F)F)cc3)C2=O)CC1 [Example 165a, (5α,8α)-8-Ethyl-8-hydroxy-2-[4-((S)-2,2,2-trifluoro-1-methyl-ethoxy)-phenyl]-2-aza-spiro[4.5]decan-1-one]
  IC50: 20 nM

## CC[C@]1(O)CC[C@]2(CCN(c3ccc(O[C@H](C)C(F)(F)F)cc3)C2=O)CC1 [Example 165b, (5α,8α)-8-Ethyl-8-hydroxy-2-[4-((R)-2,2,2-trifluoro-1-methyl-ethoxy)-phenyl]-2-aza-spiro[4.5]decan-1-one]
  IC50: 30 nM

## O=C1N(c2ccc(OCC(F)(F)F)nc2)CC[C@]12CC[C@@](O)(CCC(F)(F)F)CC2 [Example 166, (5α,8α)-8-Hydroxy-2-[6-(2,2,2-trifluoro-ethoxy)-pyridin-3-yl]-8-(3,3,3-trifluoro-propyl)-2-aza-spiro[4.5]decan-1-one]
  IC50: 40 nM

## CCC[C@]1(O)CC[C@]2(CCN(c3ccc(OCC(F)(F)F)nc3)C2=O)CC1 [Example 167, (5α,8α)-8-Hydroxy-8-propyl-2-[6-(2,2,2-trifluoro-ethoxy)-pyridin-3-yl]-2-aza-spiro[4.5]decan-1-one]
  IC50: 40 nM

## CC[C@]1(O)CC[C@]2(CCN(c3ccc(OCC(F)(F)F)nc3)C2=O)CC1 [Example 168, (5α,8α)-8-Ethyl-8-hydroxy-2-[6-(2,2,2-trifluoro-ethoxy)-pyridin-3-yl]-2-aza-spiro[4.5]decan-1-one]
  IC50: 70 nM

## CC[C@]1(O)CC[C@]2(CCN(c3ccc(CCC(F)(F)F)cc3)C2=O)CC1 [Example 169, (5α,8α)-8-Ethyl-8-hydroxy-2-[4-(3,3,3-trifluoro-propyl)-phenyl]-2-aza-spiro[4.5]decan-1-one]
  IC50: 50 nM

## CCC[C@]1(O)CC[C@]2(CCN(c3ccc(CCC(F)(F)F)cc3)C2=O)CC1 [Example 170, (5α,8α)-8-Hydroxy-8-propyl-2-[4-(3,3,3-trifluoro-propyl)-phenyl]-2-aza-spiro[4.5]decan-1-one]
  IC50: 50 nM

## CC[C@]1(O)CC[C@]2(CCN(c3ccc(O[C@@H](C)C(F)(F)F)nc3)C2=O)CC1 [Example 171, (5α,8α)-8-Ethyl-8-hydroxy-2-[6-((S)-2,2,2-trifluoro-1-methyl-ethoxy)-pyridin-3-yl]-2-aza-spiro[4.5]decan-1-one]
  IC50: 30 nM

## CCC[C@]1(O)CC[C@]2(CCN(c3ccc(O[C@@H](C)C(F)(F)F)nc3)C2=O)CC1 [Example 172, (5α,8α)-8-Hydroxy-8-propyl-2-[6-((S)-2,2,2-trifluoro-1-methyl-ethoxy)-pyridin-3-yl]-2-aza-spiro[4.5]decan-1-one]
  IC50: 20 nM
